Data on six molecules can be found in ChEMBL document CHEMBL1201862, “PubChem BioAssay data set” (2004).

Test [1] concerns Vero. The experiment in a line: cells. The class given is functional, cell-based. The conditions noted are these: Chlorocebus sabaeus.
Test [2] concerns Vero. The experiment in a line: cells. The class given is functional. The conditions noted are these: Chlorocebus sabaeus.
Test [3] concerns Vero. In words: mammalian cell viability reduction – secondary assay, cytotoxicity control for West Nile virus antiviral project, dose response (AID 1650). The class given is functional. The conditions noted are these: Chlorocebus sabaeus.
Test [4] can be described thus: Dd2 parasite growth inhibition in erythrocytes – SYBR Green, dry powder samples, set 9, dose response (AID 1159568). The class given is functional, cell-based.
Test [5] is described as follows: HEK-293T viability loss, compound-treated – cell-based, uHTS hits, cytotoxicity control for B/T-cell NF-kB inhibitor project, dose response (AID 489019).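 Note: IC50 reflects cytotoxicity as loss of cell viability.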 The class given is functional.
For a further test, the system named is Jurkat. In words: blockers of NF-kB activation in T cells – Jurkat, luciferase reporter, luminescence, B- and T-cell, dose response (AID 489004).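 Note: NF-kB luciferase reporter Jurkat cells stimulated with PMA plus ionomycin.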 As to conditions: Homo sapiens. The class given is functional, cell-based. (In general: Reporter assays use an easily measured gene product as a stand-in for the process of interest.)
In a further test the test system is HT-1080. In words: HT1080 cell viability loss – fluorescence readout (AID 620). The class given is functional, cell-based. The conditions noted are these: Homo sapiens.
Test [6] is described as follows: Luminescence Cell-Based Dose Confirmation to Identify Activators of 5'UTR Stem-Loop Driven Alpha-Synuclein mRNA Translation in H4 Neuroglioblastoma Cells. [Related pubchem assays: 1829 (Project Summary), 1814 (Primary HTS)]. The class given is functional.
Test [7] is described as follows: Luminescence Cell-Based Dose Confirmation HTS to Identify Activators of 5'UTR Stem-Loop Driven Alpha-Synuclein mRNA Translation in H4 Neuroglioblastoma Cells. [Related pubchem assays: 1829 (Project Summary), 1814 (Primary HTS)]. The class given is functional.
The test system of a further test is H4. In words: Luminescence Cell-Based Dose Response HTS to Identify Activators of 5'UTR Stem-Loop Driven Prion Protein mRNA Translation in H4 Neuroglioblastoma Cells. [Related pubchem assays: 1829 (Project Summary), 1814 (Primary HTS)]. The class given is functional. The conditions noted are these: Homo sapiens.
The nature of test [8]: Luminescence Cell-Based Dose Response to Identify Activators of 5'UTR Stem-Loop Driven Prion Protein mRNA Translation in H4-C Neuroglioblastoma Cells. [Related pubchem assays: 1829 (Project Summary), 1814 (Primary HTS)]. The class given is functional.
Test [9] can be described thus: Luminescence Cell-Based Dose Response HTS to Identify Activators of Luciferase Translation or Activity in H4 […] Cells. [Related pubchem assays: 1829 (Project Summary), 1814 (Primary HTS)]. The class given is functional.
Test [10] is described as follows: Luminescence Cell-Based Dose Response to Identify Activators of Luciferase Translation or Activity in H4-C Neuroglioblastoma Cells. [Related pubchem assays: 1829 (Project Summary), 1814 (Primary HTS)]. The class given is functional.
For test [11], the system named is BJ. In words: BJ-TERT-LT-ST fibroblast viability loss – cell-based, RAS-independent, luminescence, dose response (AID 1935).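 Note: BJ fibroblasts immortalized with TERT plus LT and ST oncogenes.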 The conditions noted are these: Homo sapiens. The class given is functional.
Test [12] addresses T1, Fatty acid synthase (Homo sapiens, UniProt P49327). In words: inhibition of human FAS-TE enzyme activity – biochemical, endpoint fluorescence intensity, uHTS hits, dose response (AID 624327).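 Note: fluorescence from hydrolysis of an O-methyl fluorescein acyl ester substrate by the enzyme.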 The class given is functional.
Test [13] can be described thus: Luminescence Cell-Based Dose Response HTS to Identify Inhibitors of 5'UTR Stem-Loop Driven Prion Protein mRNA Translation in H4 Neuroglioblastoma Cells. [Related pubchem assays: 1827 (Project Summary), 1813 (Primary HTS)]. The class given is functional.
The nature of test [14]: DRD fibroblast viability loss – cell-based, non-viral oncogenic, luminescence, dose response (AID 1934). The class given is functional. As to conditions: Homo sapiens.
Test [15] concerns the target T1, Fatty acid synthase. In words: inhibition of human FAS-TE enzyme activity – biochemical, kinetic fluorescence intensity, dose response (AID 624326).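 Note: rate of fluorescence rise from hydrolysis of a fluorogenic O-methyl fluorescein ester substrate.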 The class given is functional.
The test system of test [16] is BJ. In words: cells. The class given is functional, cell-based. As to conditions: Homo sapiens.
A short description of test [17]: alpha-synuclein stem-loop luciferase translation blockers – H4 neuroglioma cells, luminescence, confirmation (AID 1988). The class given is functional, cell-based.
The target in test [18] is Voltage-dependent T-type calcium channel subunit alpha-1H (Homo sapiens, UniProt O95180). The class given is functional.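 Note: channel activity triggered by adding a high calcium stimulation buffer.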
Test [19] in a line: loss of viability in HepG2 cells – cell-based, CellTiter-Glo, cherry-picked, cytotoxicity control for Shn3 inhibitor project, dose response (AID 624134). The class given is functional. A general note: ATP-based viability assays read luminescence as a measure of living cells.
In test [20] the test system is BJ. The experiment in a line: growth inhibition of engineered Ras-driven BJ cells – cell-based, alamar blue fluorescence, cherrypicked samples, dose response (AID 2631).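 Note: confirmatory dose-response assay in RAS-dependent BJ fibroblasts engineered with TERT, LT and ST, with cytotoxicity read by fluorescence.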 The class given is functional. As to conditions: Homo sapiens. (Alamar Blue is a resazurin reagent that responds to reducing activity.)
Test [21] is described as follows: luciferase reporter signal suppression in cells – H4 neuroglioma cells, luminescence, dose response (AID 1990). The class given is functional, cell-based.
Test [22] is described as follows: non-specific 3'UTR reporter inhibition in Clone20-Shn3RL – cell-based, Renilla luciferase, cherry-picked, counter-screen for Shn3 inhibitor project, dose response (AID 624133). The class given is functional.
The nature of test [23]: reduction of Shn3 3'UTR-driven luciferase in osteoblasts – cell-based, Clone20 osteoblasts, firefly luciferase, cherry-picked, dose response (AID 624132).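 Note: firefly luciferase luminescence from reporter carrying the Shn3 3'UTR in osteoblasts.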 The class given is functional.
Test [24] has as its system BJ. In words: BJ-TERT fibroblast viability loss – cell-based, RAS-independent, luminescence, dose response (AID 1933). The class given is functional. The conditions noted are these: Homo sapiens.

Activity calls are given as the source filed them. Cut-off read from the data, not from the text of the source, for most assays here: actives have a measured EC50 and inactives only a lower limit. Some results are limits rather than exact numbers.

For orientation: IC50 means the midpoint of a concentration-inhibition curve. As usually defined, the CC50 is the concentration at which the toxic effect on the cells reaches its halfway point. As usually defined, the AC50 is the concentration giving half of the maximal activity seen. By EC50 is commonly meant the concentration that produces a half-maximal response.

T1 sequence (P49327 whole entry): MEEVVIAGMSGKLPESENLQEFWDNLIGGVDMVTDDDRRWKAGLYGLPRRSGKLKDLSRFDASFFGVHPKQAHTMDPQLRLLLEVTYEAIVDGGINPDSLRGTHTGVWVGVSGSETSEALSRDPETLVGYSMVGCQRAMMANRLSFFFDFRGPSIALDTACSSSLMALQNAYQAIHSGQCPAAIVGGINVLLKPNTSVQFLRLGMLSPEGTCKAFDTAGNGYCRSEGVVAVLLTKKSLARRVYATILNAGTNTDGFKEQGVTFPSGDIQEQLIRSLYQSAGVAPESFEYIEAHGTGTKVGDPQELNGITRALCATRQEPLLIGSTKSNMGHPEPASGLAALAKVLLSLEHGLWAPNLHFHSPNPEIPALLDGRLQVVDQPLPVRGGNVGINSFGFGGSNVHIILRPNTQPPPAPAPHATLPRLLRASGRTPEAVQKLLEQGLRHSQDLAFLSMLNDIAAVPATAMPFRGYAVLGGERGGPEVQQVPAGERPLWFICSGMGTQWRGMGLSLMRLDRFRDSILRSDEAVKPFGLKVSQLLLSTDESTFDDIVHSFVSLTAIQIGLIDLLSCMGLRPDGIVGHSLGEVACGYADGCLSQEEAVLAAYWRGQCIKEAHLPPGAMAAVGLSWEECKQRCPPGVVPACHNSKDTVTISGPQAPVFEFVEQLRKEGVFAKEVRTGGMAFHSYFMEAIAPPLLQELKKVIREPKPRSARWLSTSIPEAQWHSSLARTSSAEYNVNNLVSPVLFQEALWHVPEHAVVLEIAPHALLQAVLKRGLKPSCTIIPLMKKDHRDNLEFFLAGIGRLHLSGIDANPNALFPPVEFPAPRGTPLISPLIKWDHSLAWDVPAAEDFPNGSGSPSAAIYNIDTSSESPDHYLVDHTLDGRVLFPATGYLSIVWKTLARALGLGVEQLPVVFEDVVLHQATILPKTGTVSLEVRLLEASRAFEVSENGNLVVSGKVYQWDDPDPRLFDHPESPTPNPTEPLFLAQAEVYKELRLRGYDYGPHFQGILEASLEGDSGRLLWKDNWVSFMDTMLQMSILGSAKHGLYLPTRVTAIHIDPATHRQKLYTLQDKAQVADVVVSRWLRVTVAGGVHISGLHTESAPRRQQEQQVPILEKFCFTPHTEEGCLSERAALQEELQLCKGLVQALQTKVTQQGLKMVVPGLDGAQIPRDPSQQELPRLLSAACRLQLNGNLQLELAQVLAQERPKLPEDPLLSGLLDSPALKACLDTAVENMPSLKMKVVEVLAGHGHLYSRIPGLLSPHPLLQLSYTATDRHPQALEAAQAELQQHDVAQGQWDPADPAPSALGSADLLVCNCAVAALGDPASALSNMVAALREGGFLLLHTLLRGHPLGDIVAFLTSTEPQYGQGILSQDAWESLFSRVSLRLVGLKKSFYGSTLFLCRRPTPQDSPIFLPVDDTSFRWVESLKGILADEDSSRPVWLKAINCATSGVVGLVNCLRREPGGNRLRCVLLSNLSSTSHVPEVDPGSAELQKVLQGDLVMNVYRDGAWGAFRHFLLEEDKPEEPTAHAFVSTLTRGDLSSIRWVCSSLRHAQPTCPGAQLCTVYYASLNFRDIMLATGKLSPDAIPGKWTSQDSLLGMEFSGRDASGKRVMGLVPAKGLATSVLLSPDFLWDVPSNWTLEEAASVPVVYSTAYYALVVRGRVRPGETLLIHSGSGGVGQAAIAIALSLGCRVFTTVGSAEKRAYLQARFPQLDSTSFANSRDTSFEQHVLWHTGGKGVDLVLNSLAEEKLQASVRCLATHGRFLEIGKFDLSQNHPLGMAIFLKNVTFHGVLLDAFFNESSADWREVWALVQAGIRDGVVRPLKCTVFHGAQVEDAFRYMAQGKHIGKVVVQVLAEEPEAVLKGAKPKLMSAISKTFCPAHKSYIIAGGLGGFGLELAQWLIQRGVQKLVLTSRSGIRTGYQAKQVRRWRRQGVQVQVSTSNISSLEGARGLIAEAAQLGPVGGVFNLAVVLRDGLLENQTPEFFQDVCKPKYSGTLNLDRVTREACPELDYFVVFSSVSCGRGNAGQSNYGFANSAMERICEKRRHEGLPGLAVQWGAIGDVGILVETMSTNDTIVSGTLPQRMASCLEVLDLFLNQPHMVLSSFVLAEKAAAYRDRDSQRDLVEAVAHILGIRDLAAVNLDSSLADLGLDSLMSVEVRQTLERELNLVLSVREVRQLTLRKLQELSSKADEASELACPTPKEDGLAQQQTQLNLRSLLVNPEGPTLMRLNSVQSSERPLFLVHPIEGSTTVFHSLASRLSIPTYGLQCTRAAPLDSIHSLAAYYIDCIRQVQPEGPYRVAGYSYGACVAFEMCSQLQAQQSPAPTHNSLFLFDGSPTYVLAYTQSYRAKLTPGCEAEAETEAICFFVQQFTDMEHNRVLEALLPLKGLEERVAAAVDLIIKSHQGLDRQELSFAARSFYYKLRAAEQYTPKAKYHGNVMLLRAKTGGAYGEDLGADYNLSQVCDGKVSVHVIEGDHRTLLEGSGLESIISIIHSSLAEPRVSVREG
Voltage-dependent T-type calcium channel subunit alpha-1H, sequence (O95180 whole entry): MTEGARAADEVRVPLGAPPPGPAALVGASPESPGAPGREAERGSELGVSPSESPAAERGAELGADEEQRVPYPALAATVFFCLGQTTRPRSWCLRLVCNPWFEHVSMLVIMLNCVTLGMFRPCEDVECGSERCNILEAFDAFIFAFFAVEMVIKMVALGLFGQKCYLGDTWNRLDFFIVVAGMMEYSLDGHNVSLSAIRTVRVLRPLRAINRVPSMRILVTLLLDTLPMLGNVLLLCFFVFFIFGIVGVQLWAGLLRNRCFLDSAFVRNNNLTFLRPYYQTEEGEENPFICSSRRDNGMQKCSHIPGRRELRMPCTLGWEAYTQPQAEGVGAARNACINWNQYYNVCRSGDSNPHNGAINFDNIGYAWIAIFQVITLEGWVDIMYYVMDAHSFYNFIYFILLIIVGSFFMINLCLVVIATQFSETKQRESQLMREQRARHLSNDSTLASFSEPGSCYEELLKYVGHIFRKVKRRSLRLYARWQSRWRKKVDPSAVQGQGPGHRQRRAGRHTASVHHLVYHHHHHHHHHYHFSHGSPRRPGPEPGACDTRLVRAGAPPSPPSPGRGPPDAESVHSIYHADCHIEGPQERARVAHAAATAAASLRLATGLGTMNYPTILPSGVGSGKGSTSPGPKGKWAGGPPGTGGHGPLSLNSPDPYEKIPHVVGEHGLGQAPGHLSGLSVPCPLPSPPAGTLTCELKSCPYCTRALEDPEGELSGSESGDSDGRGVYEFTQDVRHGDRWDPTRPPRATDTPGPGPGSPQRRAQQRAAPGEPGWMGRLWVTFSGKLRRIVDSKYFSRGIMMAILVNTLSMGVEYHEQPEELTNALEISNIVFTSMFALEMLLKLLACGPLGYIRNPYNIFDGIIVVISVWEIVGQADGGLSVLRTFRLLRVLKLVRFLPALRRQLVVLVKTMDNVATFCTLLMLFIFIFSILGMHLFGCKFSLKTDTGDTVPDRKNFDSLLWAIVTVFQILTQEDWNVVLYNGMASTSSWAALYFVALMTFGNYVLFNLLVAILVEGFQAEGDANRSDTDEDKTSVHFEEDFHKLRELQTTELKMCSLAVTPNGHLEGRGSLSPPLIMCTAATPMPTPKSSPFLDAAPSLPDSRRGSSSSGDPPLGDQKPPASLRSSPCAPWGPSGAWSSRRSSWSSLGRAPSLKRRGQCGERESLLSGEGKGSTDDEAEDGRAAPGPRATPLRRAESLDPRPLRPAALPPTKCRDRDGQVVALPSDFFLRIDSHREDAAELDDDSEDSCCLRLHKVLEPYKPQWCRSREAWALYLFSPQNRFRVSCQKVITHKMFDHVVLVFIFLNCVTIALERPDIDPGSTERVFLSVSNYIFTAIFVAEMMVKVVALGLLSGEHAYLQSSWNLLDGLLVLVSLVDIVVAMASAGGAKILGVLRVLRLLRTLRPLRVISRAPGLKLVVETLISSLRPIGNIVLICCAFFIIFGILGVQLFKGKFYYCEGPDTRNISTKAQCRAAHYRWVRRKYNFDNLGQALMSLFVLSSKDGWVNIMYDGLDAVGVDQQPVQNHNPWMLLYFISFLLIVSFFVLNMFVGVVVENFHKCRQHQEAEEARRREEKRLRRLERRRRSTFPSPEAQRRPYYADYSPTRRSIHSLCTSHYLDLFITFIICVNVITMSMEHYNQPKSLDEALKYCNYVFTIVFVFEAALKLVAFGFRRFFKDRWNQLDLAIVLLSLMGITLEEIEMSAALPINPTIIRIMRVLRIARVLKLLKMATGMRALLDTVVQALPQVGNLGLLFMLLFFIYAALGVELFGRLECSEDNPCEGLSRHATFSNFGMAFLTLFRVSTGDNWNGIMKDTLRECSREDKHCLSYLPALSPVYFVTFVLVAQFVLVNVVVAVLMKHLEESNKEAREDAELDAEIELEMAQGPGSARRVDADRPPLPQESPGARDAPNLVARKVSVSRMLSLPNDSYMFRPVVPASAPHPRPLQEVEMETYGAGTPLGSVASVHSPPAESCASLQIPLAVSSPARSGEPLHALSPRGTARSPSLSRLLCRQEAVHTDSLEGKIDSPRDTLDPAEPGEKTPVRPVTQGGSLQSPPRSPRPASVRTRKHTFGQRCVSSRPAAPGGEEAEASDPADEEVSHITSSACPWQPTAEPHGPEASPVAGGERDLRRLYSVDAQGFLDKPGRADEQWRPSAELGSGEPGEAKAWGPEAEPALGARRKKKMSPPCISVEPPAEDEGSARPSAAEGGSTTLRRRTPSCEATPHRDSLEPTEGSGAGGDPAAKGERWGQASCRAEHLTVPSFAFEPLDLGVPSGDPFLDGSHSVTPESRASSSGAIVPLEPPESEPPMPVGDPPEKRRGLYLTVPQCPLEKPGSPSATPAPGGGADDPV

Consider `COc1ccc(CCNC(=O)/C=C/c2ccc3ccccc3n2)cc1OC`, for which, in the test with Vero [1], the IC50 was > 25 µM (active). The CC50 was 16.4 µM (active) in the test on Vero [2] and 12 µM (active) in the test with Vero [3].

Take `COc1ccccc1S(=O)(=O)N(C)C[C@@H]1OCc2ccccc2-c2ccccc2C(=O)N([C@H](C)CO)C[C@@H]1C`: the AC50 in test [4] is 4.71 µM (active).

Turning to `C[C@@H]1CN([C@@H](C)CO)C(=O)c2cc(NC(=O)Nc3ccc4c(c3)OCO4)ccc2O[C@@H](C)CCCCO[C@H]1CN(C)S(=O)(=O)c1ccccc1`, the AC50 in [4] is 4.34 µM (active).

`N#Cc1c(NC(=O)CSc2nc[nH]n2)sc2c1CCCC2`: the IC50 is > 80 µM (inactive) in test [5] and 640 nM (active) in the test on Jurkat. Also, in the test with HT-1080, the half-maximal effective concentration (EC50) was > 50 µM (not active).

Consider `CCOC(=O)c1csc(-c2ccc3c(c2)CCO3)n1`, for which the EC50 in test [6] is > 12 µM (not active); in test [7], 127 nM (active); in the test on H4, 552 nM (active); in test [8] it was > 12 µM (not active); in test [9] it was < 100 nM (active); in [10] it was > 12 µM (not active).

As for `CCn1cc(C(=O)NCc2ccco2)c(=O)c2cc(S(=O)(=O)N3CC(C)CC(C)C3)ccc21` (centres undefined), the half-maximal effective concentration (EC50) in the test with BJ [11] was > 150 µM (inconclusive); in test [13] it was 503 nM (active); in test [14], 7.64 µM (active); in the test with BJ [16], 5.24 µM (active); in test [17] it was 10.9 µM (active); in [18] it was 2.49 µM (active). Moreover, the EC50 with BJ [20] was > 133 µM (inactive); in [21], 9.5 µM (active); in the test with BJ [24] it was > 150 µM (not active). Further, the half-maximal inhibitory concentration (IC50) on Fatty acid synthase [12] was 4.25 µM (active); on Fatty acid synthase [15] it was 4.14 µM (active). Moreover, the results for the AC50 in test [19], in test [22] and in [23] were 4.32 µM (active), 1.67 µM (active) and 778 nM (active), respectively. For the same molecule, the CC50 in the test with Vero [3] is 32.1 µM (active).
